From patent US10576147B2, “Muramyl peptide derivative compound, synthesis and uses thereof” (BHARAT BIOTECH INTERNATIONAL LIMITED, priority 2015, dated 2020) come the findings set out here.

Test [1] deals with BALB/c mice. Kind of test: OVA-specific IgG after immunization (indirect ELISA). It counts as in vivo. As to conditions: OVA 100 μg alone, s.c. Days 1 and 15, sera 2 weeks after last immunization. How it is done:
Male BALB/c mice were immunized subcutaneously with OVA 100 μg alone or with OVA 100 μg dissolved in saline containing analogues (7.5, 15 or 30 μg) on Days 1 and 15. Sera were collected 2 weeks after the last immunization. OVA-specific IgG antibodies in the sera were measured by an Indirect ELISA. The values are presented as log 2 titre.
(ELISA stands for enzyme-linked immunosorbent assay.)

For test [2], the system named is BALB/c mice. The test can be described thus: Total IgG1 and IgG2a after immunization (sandwich ELISA). It counts as in vivo. Particulars: OVA 100 μg alone. The procedure: Male BALB/c mice were immunized subcutaneously with OVA 100 μg alone or with OVA 100 μg dissolved in saline containing analogues (7.5, 15 or 30 μg) on Days 1 and 15. Sera were collected 2 weeks after the last immunization. Total IgG1 and IgG2a antibodies in the sera were measured by Sandwich ELISA. The values are presented as log 2 titre.

Regarding “OVA: Ovalbumin (OVA) antigen, given alone”, the “Log(2) IgG Antibody Titre” value in test [1] came to 12.64. Moreover, in test [2], the “Log(2) Total IgG1 Antibody Titre” value is given as 14.39 and the “Log(2) Total IgG2a Antibody Titre” value was found to be 11.89.
